From patent US20180369186A1, “METHOD FOR MODULATING AUTOPHAGY AND APPLICATIONS THEREOF” (JAWAHARLAL NEHRU CENTRE FOR ADVANCED SCIENTIFIC RESEARCH, priority 2015, published 2018)

Legend:
[1] = test system: TH+ dopaminergic neurons in SNpc; test: MPTP mouse model: TH+ dopaminergic neurons in SNpc (stereology, densitometry, volume); format: in vivo, mice
Protocol: As described by Vernice Jackson-Lewis & Serge Przedborski (2007), 23.4 mg/kg MPTP.HCl (equivalent to 20 mg/kg free base) in 10 ml/kg body wt. of saline is administered intraperitoneally (i.p.) for 4 times at 2 h intervals.
All mice are sacrificed 9 days post MPTP administration and brains are processed for immunohistochemistry.
Mice are anaesthetized using Halothane BP (Piramal Healthcare) inhalation and perfused intracardially with normal saline followed by 4% PFA in 0.1 M phosphate buffer, pH 7.4. Brains are removed quickly and post-fixed with 4% PFA for 24 h-48 h at 4° C. Following cryoprotection in 15% and 30% sucrose, 40 μm thick coronal cryosections of midbrain are collected serially on gelatinized slides. Immunoperoxidase labelling protocol as identical to that reported. Briefly, endogenous peroxidase is quenched using H2O2 (0.1%) in methanol (70%), followed by blocking of non-specific staining by buffered solution (3%) of bovine serum albumin for 4 h at room temperature. Sections are incubated with TH primary antibody (1:500) followed by biotin conjugated secondary antibody (1:200 dilution, Vector Laboratories). Tertiary labelling is performed with avidin-biotin complex solution (1:100, Vector Laboratories). Staining is visualized using 3′-3′-diaminobenzidine (0.05%) as a chromogen in a solution of 0.1M acetate imidazole buffer (pH 7.4) and H2O2 (0.1%). Negative controls are processed identically, except that primary antibody is replaced with dilution buffer.
As described by Y. Fu et al., SNpcis delineated using the 4× objective of Olympus BX61 Microscope (Olympus) equipped with Stereo Investigator Software Version 7.2 (MicroBrightField). Stereological quantification is performed using optical fractionator probe with slight modifications(P. A. Alladi et al.). Briefly, every sixth midbrain section containing SNpc is chosen and TH^+ cells are counted under 100× objective, with a regular grid interval of 22500 μm^2 (x=150 μm, y=150 μm) and counting frame with an area of 3600 μm^2 (x=60 μm, y=60 μm) (FIG. 10B). Mounted thickness is determined at every fifth site, averaging to 25 μm. Guard zone 4 μm is applied on either side, thus providing 17 μm of z-dimension within optical dissector. The quantification is performed starting with first anterior appearance of TH^+ neurons in SNpc to caudal most part. The SNpc volume is determined by planimetry (FIG. 10C) and total numbers of neurons according to mean measured thickness are noted.
High magnification images of TH stained nigral DAergic neurons, captured for offline assessment of Tyrosine Hydroxylase (TH) enzyme expression levels=used. Expression intensity is measured using a Windows based image analysis system (Q Win V3, Leica Systems). Cumulative mean is derived from the values obtained from sampling, approximately 200 DAergic neurons per animal. Intensity output is measured on a grey scale of 0-255, where 0 equals intense staining and 255 means absence of staining.
The mice are distributed into three groups' viz., vehicle, MPTP and MPTP+XCT 790 injected respectively. The vehicle group receives intraperitoneal injections of dimethyl sulfoxide (DMSO) injections i.e. the solvent. The MPTP group receives 23.4 mg/kg MPTP.HCl in 10 ml/kg body wt. of saline is administered intraperitoneally for 4 times at 2 h interval. The MPTP+XCT 790 group mice are injected with 5 mg/kg body wt, of XCT 790 dissolved in DMSO, alongside the first MPTP injection. […]

α-synuclein-EGFP = α-synuclein-EGFP degradation assay in yeast; format: cell-based, S. cerevisiae; conditions: 50 μM
Protocol: Subsequent degradation of α-synuclein-EGFP levels are analyzed using immunoblotting (FIG. 9A).
Yeast cultures after respective treatments are washed, mounted on agarose (2%) pad and imaged. Images are acquired using DeltaVision Elite widefield microscope (API, GE) with following filters: DAPI (390/18 and 435/48), FITC (490/20 and 529/38), TRITC (542/27 and 594/45) and Cy5 (632/22 and 676/34). Images are processed using DV SoftWoRX software. Autophagosome (yellow) and autolysosome (red) are counted using Cell Counter plug-in in imager software (NIH) and graphically represented as fold difference versus untreated (FIGS. 4A, B, C and D).
After inducing α-synuclein-EGFP aggregates in the corresponding yeast strains driven by galactose promoter, the protein expression is turned off by adding dextrose in the medium. Then, α-synuclein-EGFP aggregates degradation by XCT 790 are assessed by collecting cells treated with and without XCT 790 (50 μM) for 0 and 24 h. Subsequently, the protein levels are analyzed using immunoblotting.
The appropriate yeast strains (A600=3) are mixed in trichloroacetic acid (12.5%) and then stored at −80° C. Then, the samples are thawed on ice, centrifuged (16000×g, 15 min) and the pellets are washed twice with ice-cold acetone (80%). Pellets are air dried, resuspended in lysis solution (0.1 N NaOH and 1% SDS) and Laemmli buffer and boiled for 15 min.
After respective treatments, the yeast cultures were washed, seeded on agarose (2%) pad and then imaged.

DAergic neurons in SNpc = test: MPTP mouse model: LC3 and A11 puncta in DAergic neurons of SNpc; format: in vivo
Protocol: The sequential immunolabeling procedure is used to co-label the TH and LC3 and/or A11. First, the midbrain sections are equilibrated with 0.1 M PBS (pH 7.4) for 10 min and then incubated with buffered bovine serum albumin (3%) for 4 h to block non-specific epitopes. Then, the sections are incubated in rabbit anti-LC3 antibody (1:1000) and/or anti-oligomer antibody (A11, 1:1000) for 72 h at 4° C. After subsequent washes, the sections are incubated in corresponding fluorescent secondary antibody (1:200) at 4° C., overnight.
Co-labeling with TH is performed on the same sections using rabbit anti-TH antibody (1:500), followed by secondary labeling. PBST (0.01 M, pH 7.4) is used as both working and washing buffer. Sections are then mounted using Vectashield hardset mounting medium.

[2] = 5 mg/kg, co-administered with MPTP

SMILES | decrease in SNpc volume upon MPTP administration ([1]; 5 mg/kg i.p., Co and Pro groups) | α-synuclein-EGFP clearance in autophagy mutant atg1Δ (α-synuclein-EGFP; atg1Δ) | α-synuclein-EGFP levels in wild type cells (α-synuclein-EGFP; non-starvation and starvation, 0, 6, 12 and 24 h) | LC3B puncta per neuron, MPTP vs MPTP+Co (DAergic neurons in SNpc; 5 mg/kg, co administered with MPTP) | reduction in A11 positive toxic aggregates, MPTP vs MPTP+Co (DAergic neurons in SNpc; [2]) | p-GSK3B signals in DAergic neurons (DAergic neurons in SNpc; 6-Bio only and MPTP+Co cohorts) | prevention of SNpc volume shrinkage ([1]; 5 mg/kg, MPTP+Co vs MPTP) | alleviation of MPTP induced dopaminergic neuronal loss ([1]; 5 mg/kg, co-administration with MPTP) | clearance of α-synuclein-EGFP in wild-type strain (α-synuclein-EGFP; 24 h, untreated vs treated) | vacuolar free EGFP (vacuolar degradation of α-synuclein-EGFP) (α-synuclein-EGFP; microscopy, WT α-synuclein-EGFP, untreated vs treated) | LC3 puncta per neuron, compound only vs placebo/vehicle (DAergic neurons in SNpc; 5 mg/kg of body weight, compound only cohort) | aggregates in compound only cohort vs vehicle (DAergic neurons in SNpc; 5 mg/kg, XCT 790 only) | LC3 puncta per cell, vehicle vs MPTP+Co (DAergic neurons in SNpc; [2])
O=C1Nc2cc(Br)ccc2/C1=C1/Nc2ccccc2/C1=N\O [6-Bio, (2′Z,3′E)-6-Bromoindirubin-3′-oxime] | not seen | not in an autophagy mutant | time-dependent and significant decrease | ~2,5 fold | ~7 fold | Reduced p-GSK3B signals |  |  |  |  |  |  | 
COc1cc(C=C(C#N)C(=O)Nc2nnc(C(F)(F)F)s2)ccc1OCc1ccc(C(F)(F)F)cc1C(F)(F)F [XCT 790, 3-[4-(2,4-Bis-trifluoromethylbenzyloxy)-3-methoxyphenyl]-2-cyano-N-(5-trifluoromethyl-1,3,4-thiadiazol-2-yl)acrylamide] |  |  |  |  | ~6 fold |  | approximately 85% | 80% | ~2.5 fold | ~14 fold | ~3 fold | comparable to that of vehicle cohort | ~3 fold
